Results published in PubChem BioAssay AID2060493 (Molecular Pharmacology Branch, DTP, NCI, 2025).
Values joined by “and” are separate entries in the source; they are usually repeats but may differ in a detail not shown here. Equal entries are not always repeated.

System: 616215-338-R-J1-PDC tumor spheroids, viability
Test: Anticancer human tumor 616215-338-R-J1-PDC patient-derived colon adenocarcinoma cell line growth inhibition [GQUAD]
Conditions: spheroids with HUVEC and MSC; for viability, T/C: stronger effect = lower value
In short: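 Multi-cell-type spheroids of tumor cells with HUVEC and mesenchymal stem cells, treated with drug combinations. Concentrations descend in half-log steps from near clinical Cmax, or from 10 microM where Cmax is unknown; viability read-out.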

[1] = curve of first compound, second compound 0.0316 µM
[2] = curve of first compound, second compound 0.1 µM
[3] = curve of first compound, second compound 0.316 µM
[4] = curve of first compound, second compound 1 µM
[5] = curve of first compound, second compound 3.16 µM
[6] = curve of first compound, second compound 10 µM
[7] = second compound 0.0316 µM, first compound 0.0316 µM
[8] = second compound 0.0316 µM, first compound 0.1 µM
[9] = second compound 0.0316 µM, first compound 0.316 µM
[10] = second compound 0.0316 µM, first compound 1 µM
[11] = second compound 0.0316 µM, first compound 3.16 µM
[12] = second compound 0.0316 µM, first compound 10 µM
[13] = second compound 0.1 µM, first compound 0.0316 µM
[14] = second compound 0.1 µM, first compound 0.1 µM
[15] = second compound 0.1 µM, first compound 0.316 µM
[16] = second compound 0.1 µM, first compound 1 µM
[17] = second compound 0.1 µM, first compound 3.16 µM
[18] = second compound 0.1 µM, first compound 10 µM
[19] = second compound 0.316 µM, first compound 0.0316 µM
[20] = second compound 0.316 µM, first compound 0.1 µM
[21] = second compound 0.316 µM, first compound 0.316 µM
[22] = second compound 0.316 µM, first compound 1 µM
[23] = second compound 0.316 µM, first compound 3.16 µM
[24] = second compound 0.316 µM, first compound 10 µM
[25] = second compound 1 µM, first compound 0.0316 µM
[26] = second compound 1 µM, first compound 0.1 µM
[27] = second compound 1 µM, first compound 0.316 µM
[28] = second compound 1 µM, first compound 1 µM
[29] = second compound 1 µM, first compound 3.16 µM
[30] = second compound 1 µM, first compound 10 µM
[31] = second compound 3.16 µM, first compound 0.0316 µM
[32] = second compound 3.16 µM, first compound 0.1 µM
[33] = second compound 3.16 µM, first compound 0.316 µM
[34] = second compound 3.16 µM, first compound 1 µM
[35] = second compound 3.16 µM, first compound 3.16 µM
[36] = second compound 3.16 µM, first compound 10 µM
[37] = second compound 10 µM, first compound 0.0316 µM
[38] = second compound 10 µM, first compound 0.1 µM
[39] = second compound 10 µM, first compound 0.316 µM
[40] = second compound 10 µM, first compound 1 µM
[41] = second compound 10 µM, first compound 3.16 µM
[42] = second compound 10 µM, first compound 10 µM
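Further: spheroids exposed to agents for 7 days before readout.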
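Wherever viability, T/C is given: percent viability relative to DMSO vehicle control wells taken as 100%.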

CC1COCCN1c1cc(C2(S(C)(=N)=O)CC2)nc(-c2ccnc3[nH]ccc23)n1 (configuration not stated) + Cc1cnc(CNC(=O)c2c(=O)c3ccc(N4CCCN(C)CC4)nc3n3c2sc2ccccc23)cn1
IC50 [1]: 2380 nM | IC50 [2]: 1070 nM | IC50 [3]: 45.3 nM | IC50 [4]: < 31.6 nM | IC50 [5]: < 31.6 nM | IC50 [6]: < 31.6 nM | viability, T/C [7]: 97.6% | viability, T/C [8]: 97.4% | viability, T/C [9]: 94.5% | viability, T/C [10]: 83.7% | viability, T/C [11]: 38.8% | viability, T/C [12]: 31.4% | viability, T/C [13]: 72.5% | viability, T/C [14]: 73.4% | viability, T/C [15]: 70% | viability, T/C [16]: 51.2% | viability, T/C [17]: 33.6% | viability, T/C [18]: 32.6% | viability, T/C [19]: 53.5% | viability, T/C [20]: 43.2% | viability, T/C [21]: 44.1% | viability, T/C [22]: 42.1% | viability, T/C [23]: 33.7% | viability, T/C [24]: 28.2% | viability, T/C [25]: 38.3% | viability, T/C [26]: 40.9% | viability, T/C [27]: 32% | viability, T/C [28]: 26.7% | viability, T/C [29]: 27.7% | viability, T/C [30]: 21.5% | viability, T/C [31]: 21.9% | viability, T/C [32]: 30.2% | viability, T/C [33]: 31.6% | viability, T/C [34]: 30.2% | viability, T/C [35]: 40.4% | viability, T/C [36]: 30% | viability, T/C [37]: 25.1% | viability, T/C [38]: 27.1% | viability, T/C [39]: 29.9% | viability, T/C [40]: 22.4% | viability, T/C [41]: 19.6% | viability, T/C [42]: 17.5%

CCc1c2c(nc3ccc(O)cc13)-c1cc3c(c(=O)n1C2)COC(=O)[C@]3(O)CC
viability, T/C (compound 0.000999 µM): 93.6% and 102% (2×) | viability, T/C (compound 0.00316 µM): 75.4% and 93.8% and 87.9% | viability, T/C (compound 0.00999 µM): 63.3% and 61.1% and 66.4% | viability, T/C (compound 0.0316 µM): 24.8% and 30.3% and 29.4% | viability, T/C (compound 0.0999 µM): 22% and 16.5% and 16.2% | viability, T/C (compound 0.316 µM): 14.9% and 9.21% and 12.4% | IC50 (curve of compound): 13.9 nM and 15.6 nM and 16.3 nM

Cn1ncnc1[C@H]1c2n[nH]c(=O)c3cc(F)cc(c23)N[C@@H]1c1ccc(F)cc1
viability, T/C (compound 0.000999 µM): 101% and 92.4% and 96.4% | viability, T/C (compound 0.00316 µM): 90.2% and 96.7% and 93.7% | viability, T/C (compound 0.00999 µM): 104% and 101% and 99.2% | viability, T/C (compound 0.0316 µM): 88.4% and 99.1% and 102% | viability, T/C (compound 0.0999 µM): 106% and 100% (2×) | viability, T/C (compound 0.316 µM): 99% and 97.3% and 99.4% | IC50 (curve of compound): > 316 nM

C#Cc1c(F)ccc2cc(O)cc(-c3ncc4c(N5CC6CCC(C5)N6)nc(OCC56CCCN5CC(F)C6)nc4c3F)c12 (configuration not stated) + Cc1[nH]c2ccc(F)cc2c1-c1nc2c3cccnc3c3ncccc3c2[nH]1
IC50 [1]: > 10000 nM | IC50 [2]: > 10000 nM | IC50 [3]: > 10000 nM | IC50 [4]: > 10000 nM | IC50 [5]: 8110 nM | IC50 [6]: 6030 nM | viability, T/C [7]: 104% | viability, T/C [8]: 109% | viability, T/C [9]: 103% | viability, T/C [10]: 111% | viability, T/C [11]: 97.4% | viability, T/C [12]: 73.3% | viability, T/C [13]: 107% | viability, T/C [14]: 111% | viability, T/C [15]: 126% | viability, T/C [16]: 113% | viability, T/C [17]: 96% | viability, T/C [18]: 78.4% | viability, T/C [19]: 113% | viability, T/C [20]: 96.9% | viability, T/C [21]: 124% | viability, T/C [22]: 116% | viability, T/C [23]: 106% | viability, T/C [24]: 56.9% | viability, T/C [25]: 105% | viability, T/C [26]: 99.9% | viability, T/C [27]: 97.9% | viability, T/C [28]: 108% | viability, T/C [29]: 83.8% | viability, T/C [30]: 64.4% | viability, T/C [31]: 102% | viability, T/C [32]: 106% | viability, T/C [33]: 116% | viability, T/C [34]: 94.1% | viability, T/C [35]: 82.6% | viability, T/C [36]: 42.9% | viability, T/C [37]: 97.2% | viability, T/C [38]: 101% | viability, T/C [39]: 110% | viability, T/C [40]: 82.1% | viability, T/C [41]: 60.8% | viability, T/C [42]: 42.4%

CC1COCCN1c1cc(-c2ccnn2C)c2ccnc(-c3ccn[nH]3)c2n1 (configuration not stated) + Cc1cnc(CNC(=O)c2c(=O)c3ccc(N4CCCN(C)CC4)nc3n3c2sc2ccccc23)cn1
IC50 [1]: < 31.6 nM | IC50 [2]: < 31.6 nM | IC50 [3]: < 31.6 nM | IC50 [4]: < 31.6 nM | IC50 [5]: < 31.6 nM | IC50 [6]: < 31.6 nM | viability, T/C [7]: 49.5% | viability, T/C [8]: 29.5% | viability, T/C [9]: 31.4% | viability, T/C [10]: 24.8% | viability, T/C [11]: 25.9% | viability, T/C [12]: 21.4% | viability, T/C [13]: 42.5% | viability, T/C [14]: 35.8% | viability, T/C [15]: 29.2% | viability, T/C [16]: 25.7% | viability, T/C [17]: 23.7% | viability, T/C [18]: 20.7% | viability, T/C [19]: 28.4% | viability, T/C [20]: 32.1% | viability, T/C [21]: 26% | viability, T/C [22]: 28.5% | viability, T/C [23]: 37.4% | viability, T/C [24]: 24.8% | viability, T/C [25]: 30.6% | viability, T/C [26]: 29.8% | viability, T/C [27]: 31.9% | viability, T/C [28]: 24% | viability, T/C [29]: 19.6% | viability, T/C [30]: 17.9% | viability, T/C [31]: 28.8% | viability, T/C [32]: 22.4% | viability, T/C [33]: 25.8% | viability, T/C [34]: 24.4% | viability, T/C [35]: 22.5% | viability, T/C [36]: 17% | viability, T/C [37]: 30.2% | viability, T/C [38]: 22.7% | viability, T/C [39]: 23% | viability, T/C [40]: 19.7% | viability, T/C [41]: 24.2% | viability, T/C [42]: 19.3%

CC(C)n1c(=O)n(C)c2cnc3cc(F)c(-c4ccc(OCCCN5CCCCC5)nc4)cc3c21 + Cc1cnc(CNC(=O)c2c(=O)c3ccc(N4CCCN(C)CC4)nc3n3c2sc2ccccc23)cn1
IC50 [1]: 5420 nM | IC50 [2]: 31.6 nM | IC50 [3]: < 31.6 nM | IC50 [4]: < 31.6 nM | IC50 [5]: < 31.6 nM | IC50 [6]: < 31.6 nM | viability, T/C [7]: 82% | viability, T/C [8]: 62% | viability, T/C [9]: 47.6% | viability, T/C [10]: 69.5% | viability, T/C [11]: 64% | viability, T/C [12]: 33.9% | viability, T/C [13]: 48.3% | viability, T/C [14]: 48.5% | viability, T/C [15]: 52.2% | viability, T/C [16]: 34% | viability, T/C [17]: 36.9% | viability, T/C [18]: 28.8% | viability, T/C [19]: 40.6% | viability, T/C [20]: 43.3% | viability, T/C [21]: 53.8% | viability, T/C [22]: 38.5% | viability, T/C [23]: 46.8% | viability, T/C [24]: 13.4% | viability, T/C [25]: 28.3% | viability, T/C [26]: 36.1% | viability, T/C [27]: 29.9% | viability, T/C [28]: 28.2% | viability, T/C [29]: 34.3% | viability, T/C [30]: 30.5% | viability, T/C [31]: 22.5% | viability, T/C [32]: 25.6% | viability, T/C [33]: 32.1% | viability, T/C [34]: 23.2% | viability, T/C [35]: 26.9% | viability, T/C [36]: 8.45% | viability, T/C [37]: 31.1% | viability, T/C [38]: 41.4% | viability, T/C [39]: 19.9% | viability, T/C [40]: 31.9% | viability, T/C [41]: 24.1% | viability, T/C [42]: 19.2%
